The target of this test is hCD36ecto (CD36ecto; human CD36 ectodomain) (Homo sapiens, UniProt P16671). Nature of the test: isothermal titration calorimetry. It counts as binding.
Chain of hCD36ecto (CD36ecto; human CD36 ectodomain) (P16671 30-439 limits assumed): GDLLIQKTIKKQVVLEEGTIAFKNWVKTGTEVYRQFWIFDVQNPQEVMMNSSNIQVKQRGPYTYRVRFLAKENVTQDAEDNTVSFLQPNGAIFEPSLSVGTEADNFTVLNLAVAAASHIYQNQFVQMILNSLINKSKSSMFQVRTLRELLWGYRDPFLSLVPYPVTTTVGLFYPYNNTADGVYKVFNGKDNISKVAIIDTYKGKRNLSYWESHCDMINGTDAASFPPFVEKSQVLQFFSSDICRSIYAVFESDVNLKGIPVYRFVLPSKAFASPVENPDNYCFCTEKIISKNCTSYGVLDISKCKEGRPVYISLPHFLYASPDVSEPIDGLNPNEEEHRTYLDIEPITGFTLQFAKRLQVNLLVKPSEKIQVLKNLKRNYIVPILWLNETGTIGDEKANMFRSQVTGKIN

For the molecule `C=CC1=C(C)C2=Cc3c(C=C)c(C)c4[n]3[Fe]([Cl])[n]3c(c(C)c(CCC(=O)O)c3=CC3=NC(=C4)C(C)=C3CCC(=O)O)=CC1=N2` [hemin], the affinity, expressed as Kd, was 1.26 ± 0.24 µM.

Values taken from paper doi:10.1101/2021.06.06.447270v1 (biorxiv, 2021).
